From patent publication US20260325443A1, “OLFACTORY DELIVERY OF THERAPEUTIC PSYCHEDELICS” (Rocket Science Health Corp., priority 2023, published 2026)
Where “and” joins values, the source holds several entries; their conditions need not be identical. Identical values can stand only once. Counter-ions that a name gives are not always drawn.

Assays:
[1] = Plasma and tissue concentrations of ketamine via olfactory delivery compared to intravenous administration in rats (LC/MS/MS); type: in vivo, male Sprague Dawley rats; settings: 5 mg/kg; for concentration at 5 min / concentration at 0.25 h / concentration at 0.5 h / concentration at 1 h / concentration at 1.5 h / concentration at 2 h / concentration at 200 min: rat, plasma; for concentration at 0.25 h: 15 min; for concentration at 0.5 h: 30 min; for concentration at 1 h: 60 min; for concentration at 1.5 h: 90 min; for concentration at 2 h: 120 min
Experimental: Drug Administration and Sample Collection: Intravenous (IV) administration was conducted by 100 μL tail vein injection. Olfactory delivery (OD) administration was conducted by a. 0.699 mm diameter cannula inserted into the right nostril with a minimal angle of 20-degrees to the target of the correct meatus.
Time course experiment and tissue concentration: 12 male Sprague Dawley rats (Age M+/−SD, Weight: 176.27-188.03 g) were administered Ketamine-HCl via IV or OD administration (resulting in two experimental groups, each with n=6). Ketamine-HCl was formulated according to the following procedures: For Ketamine-HCL 5 mg/kg OD: 24.64 mg Ketamine-HCL was added to 0.426 ml of saline, mixed well, and dissolved, with a solution concentration of 50 mg/ml. For Ketamine-HCL 5 mg/kg IV: 0.20 ml of 50 mg/ml Ketamine-HCL solution, was added to 0.60 ml of saline and mixed well to achieve a solution concentration of 12.5 mg/ml. Plasma time courses for 200 minutes were generated. Concentration of compound in brain, olfactory bulb, and plasma at t=200 minutes was quantified using LC/MS/MS.

[2] = Effect of administration routes (OD, IN, IV) on plasma, brain and olfactory bulb drug concentrations in rats (LCMS); settings: 15 min after administration, 5.0 mg/kg
Experimental: The goal of this example was to compare nasal cannula delivery (OD) with the traditional IV and IN administration routes.
Procedure: The three routes of administration were tested on rats. A compound formulation of ketamine (5.0 mg/kg), naloxone (0.5 mg/kg), diazepam (2.0 mg/kg), and ondansetron (1.0 mg/kg) was administer. 15 minutes after the drug was administered, rats were sacrificed and samples were taken from plasma, the olfactory bulb, and the brain. To assess each route of administration's efficacy, drug concentrations in each tissue were quantified using liquid chromatography-mass spectrometry (LCMS).

[3] = Visualizing olfactory cleft delivery with methylene blue (nasal endoscope imaging); type: in vivo, human; settings: for Olfactory Residence Time: 0.1 mL, individual participants 2.01-2.05, at least 50% of fluid at olfactory cleft
Experimental: Participants: Five healthy participants (ages 19+) with no history of sinonasal symptoms and no evidence of nasal inflammation were recruited for this study. Prior to recruitment of participants study procedures were approved by Providence Health Care research ethics board, (British Columbia, Canada) and conducted under Health Canada Investigational Testing Authorization #314993. All participants were assessed by a licensed otolaryngologist physician to confirm their eligibility. Participants completed two study visits during which a licensed otolaryngologist physician administered 0.1 mL of the visual dye tracer, methylene blue.
Study Design: During the first visit, the methylene blue was administered using the Laminar Fluid Ejection method (1.5 mm cannula; velocity=4.5 m/s). During the second visit, methylene blue was administered using a conventional nasal spray device (Pharma systems Item #10272, UPC: 063636802714). The Pharma systems spray device was used in these experiments because it was the device normally used by the compounding pharmacy for intranasal delivery. It was the device patients and clinicians were used to at this clinic.
Following delivery, the physician used a nasal endoscope to image the deposition of methylene blue to the olfactory cleft at up to five time points (1, 5, 8, 12, and 15 minutes following delivery). From each image, the physician judged whether at least 50% of the methylene blue fluid was delivered to the olfactory cleft. If <50% of the methylene blue was judged to have deposited in the olfactory cleft, imaging was stopped and that session's trial was completed.

For `CNC1(c2ccccc2Cl)CCCCC1=O` (centres unmarked) [ketamine], the “plasma concentration, OD vs IV” value [1] was “higher plasma concentration of ketamine can be achieved with OD than IV” and the “delivery to brain tissue, targeted to olfactory cleft (OD) vs traditional intranasal” value [2] was “improved delivery to brain tissue compared to traditional intranasal sprays”.
`CNC1(c2ccccc2Cl)CCCCC1=O` (centres unmarked) [Ketamine-HCl] showed a concentration at 5 min ([1]; IV) of 1710 ng/mL, a concentration at 0.25 h ([1]; IV) of 686 ng/mL and a concentration at 0.5 h ([1]; IV) of 330 ng/mL. It also gave a concentration at 1 h ([1]; IV) of 150 ng/mL, a concentration at 1.5 h ([1]; IV) of 65.8 ng/mL and a concentration at 2 h ([1]; IV) of 27.1 ng/mL. It also gave a concentration at 200 min ([1]; IV) of 2.53 ng/mL, a concentration at 5 min ([1]; OD) of 7600 ng/mL and a concentration at 0.25 h ([1]; OD) of 7250 ng/mL. For the same compound, the concentration at 0.5 h ([1]; OD) was 2630 ng/mL, the concentration at 1 h ([1]; OD) was 383 ng/mL and the concentration at 1.5 h ([1]; OD) was 149 ng/mL. The concentration at 2 h ([1]; OD) was 63 ng/mL and the concentration at 200 min ([1]; OD) was 5.3 ng/mL.
In the case of `CN(C)c1ccc2nc3ccc(=[N+](C)C)cc-3sc2c1` [Methylene Blue], the “Olfactory Residence Time” value ([3]; LFE Method (1.5 mm cannula; velocity=4.5 m/s)) is reported as 8 min and 5 min and 0 min and 1 min and 15 min, the “participants with successful delivery of >50% of the methylene blue to the olfactory cleft” value ([3]; Laminar Fluid Ejection method) is reported as “Four of the five participants” and the “Olfactory Residence Time” value ([3]; conventional nasal spray) is reported as 0 min. For the same compound, the “delivery of at least 50% of the dye to the olfactory cleft” value ([3]; conventional nasal spray, each of the five participants) was “failed to deliver at least 50% of the dye”.
